Tests used:
Format in all cases: cell-based
[1] = system: primary human T-cells (IL-2 induced proliferation, JAK-1/JAK-3, Stat-5); experiment: Primary Human T-Cell Proliferation Assay Stimulated with IL-2 (CellTiter-Glo); details: Table III Example 4
Outline: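 Pre-activated peripheral-blood T-cells (TCR/CD28 stimulated, IL-2-maintained) were IL-2-depleted, then plated in Yssel's medium with 80 U/mL IL-2 in the cell suspension and compound in duplicate. Proliferation ran 72 h at 37 °C; viable cells quantified by CellTiter-Glo ATP luminescence, with IL-2-omitted wells as unstimulated control.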

[2] = system: IL-4 stimulated CD23 upregulation in human Ramos B cells (JAK-1/JAK-3, Stat-6); experiment: Assay for Ramos B-Cell Line Stimulated with IL-4 (CD23 upregulation, FACS); details: Table III Example 3
Outline: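 Log-phase Ramos B cells (5×10^4 per point, RPMI with 5% serum) pre-incubated with compound or DMSO 1 h at 37° C, then stimulated with IL-4 at 50 units/mL final for 20-24 h. CD23 upregulation measured by staining and flow cytometry.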

[3] = system: IFNγ induced ICAM-1 (CD54) up-regulation in U937 human monocytic cells (JAK/Stat pathway); experiment: U937 IFNγ ICAM1 FACS Assay; details: Table III Example 6; 10 ng/mL IFNγ, 18-24 hours
Outline: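 U937 cells (100,000 per well) were pre-incubated 30 min at 37 °C with serially 3-fold diluted compound, then stimulated with IFNγ for 18–24 h. Surface ICAM-1 was measured by flow cytometry as the geometric mean of ICAM-APC on gated live cells. EC50 values were calculated from dose curves, with % live cells also recorded.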

Row | SMILES | IC50 [1] [nM] | IC50 [2] [nM] | IC50 [3] [nM]
1 | CCNS(=O)(=O)c1cc(Nc2ncc(C)c(Nc3ccc(CNS(=O)(=O)C4CC4)cc3)n2)ccc1C [Compound I-186, N4-(4-cyclopropylsulfonylaminomethyl)phenyl-N2-(3-ethylaminosulfonyl-4-methyl)phenyl-5-methyl-2,4-pyrimidinediamine] | 40 | 19.5 | 73
2 | Cc1ccc(Nc2ncc(C)c(Nc3ccc(CCNS(=O)(=O)C4CC4)cc3)n2)cc1S(N)(=O)=O [Compound I-55, N2-(3-aminosulfonyl-4-methyl)phenyl-N4-[4-(2-cyclopropylsulfonylamino)ethyl]phenyl-5-methyl-2,4-pyrimidinediamine] | 84.5 | 78.8 | 360
3 | Cc1cnc(Nc2ccc(S(N)(=O)=O)cc2)nc1Nc1cccc(CN(C)S(=O)(=O)C2CC2)c1 [Compound I-124, N2-(4-aminosulfonyl)phenyl-N4-[3-(N-cyclopropylsulfonyl-N-methyl)aminomethyl]phenyl-5-methyl-2,4-pyrimidinediamine] | 132 | 89.8 | 373
4 | NS(=O)(=O)c1ccc(Nc2ncc(Cl)c(Nc3ccc(CNS(=O)(=O)C4CC4)cc3)n2)cc1 [Compound I-115, N2-(4-aminosulfonyl)phenyl-5-chloro-N4-(4-cyclopropylsulfonylaminomethyl)phenyl-2,4-pyrimidinediamine] | 19.2 | 23.3 | 105
5 | COCCCNS(=O)(=O)c1cccc(Nc2ncc(C)c(Nc3ccc(CNS(=O)(=O)C4CC4)cc3)n2)c1 [Compound I-182, N4-(4-cyclopropylsulfonylaminomethyl)phenyl-N2-[3-(3-methoxypropyl)aminosulfonyl]phenyl-5-methyl-2,4-pyrimidinediamine] | 55.1 | 25.7 | 103
6 | Cc1cnc(Nc2cccc(S(N)(=O)=O)c2)nc1Nc1cccc(CN(C)S(=O)(=O)C2CC2)c1 [Compound I-120, N2-(3-aminosulfonyl)phenyl-N4-[3-(N-cyclopropylsulfonyl-N-methyl)aminomethyl]phenyl-5-methyl-2,4-pyrimidinediamine] | 47.3 | 67.1 | 98.4
7 | Cc1cnc(Nc2ccc(S(N)(=O)=O)cc2)nc1Nc1ccc2c(c1)CCN(S(=O)(=O)C1CC1)C2 [II-1, N2-(4-aminosulfonyl)phenyl-N4-[(N-cyclopropylsulfonyl)-1,2,3,4-tetrahydroisoquinolin-6-yl]-5-methyl-2,4-pyrimidinediamine] | 108 | 42.3 | 229
8 | Cc1ccc(Nc2ncc(C)c(Nc3ccc(CN(C)S(=O)(=O)C4CC4)cc3)n2)cc1S(N)(=O)=O [Compound I-126, N2-(3-aminosulfonyl-4-methyl)phenyl-N4-[4-(N-cyclopropylsulfonyl-N-methyl)aminomethyl]phenyl-5-methyl-2,4-pyrimidinediamine] | 74.2 | 104 | 224
9 | CCNS(=O)(=O)c1cccc(Nc2ncc(C)c(Nc3cccc(CNS(=O)(=O)C4CC4)c3)n2)c1 [Compound I-208, N4-(3-cyclopropylsulfonylaminomethyl)phenyl-N2-(3-ethylaminosulfonyl)phenyl-5-methyl-2,4-pyrimidinediamine] | 45.8 | 74.3 | 257
10 | CNS(=O)(=O)c1cccc(Nc2ncc(C)c(Nc3ccc(CNS(=O)(=O)C4CC4)cc3)n2)c1 [Compound I-161, N4-(4-cyclopropylsulfonylaminomethyl)phenyl-5-methyl-N2-(3-methylaminosulfonyl)phenyl-2,4-pyrimidinediamine] | 11.2 | 16.7 | 51
11 | Cc1ccc(Nc2ncc(C)c(Nc3ccc4c(c3)CCN(S(=O)(=O)C3CC3)C4)n2)cc1S(N)(=O)=O [II-3, N2-(3-aminosulfonyl-4-methyl)phenyl-N4-[(N-cyclopropylsulfonyl)-1,2,3,4-tetrahydroisoquinolin-6-yl]-5-methyl-2,4-pyrimidinediamine] | 47.5 | 19.4 | 87.9
12 | COCCNS(=O)(=O)c1cccc(Nc2ncc(C)c(Nc3ccc(CNS(=O)(=O)C4CC4)cc3)n2)c1 [Compound I-184, N4-(4-cyclopropylsulfonylaminomethyl)phenyl-N2-[3-(2-methoxyethyl)aminosulfonyl]phenyl-5-methyl-2,4-pyrimidinediamine] | 51.7 | 14.1 | 97.8
13 | CCS(=O)(=O)NCCc1ccc(Nc2nc(Nc3cccc(S(N)(=O)=O)c3)ncc2C)cc1 [Compound I-39, N2-(3-aminosulfonyl)phenyl-N4-[4-(2-ethylsulfonylamino)ethyl]phenyl-5-methyl-2,4-pyrimidinediamine] | 58 | 46.2 | 604
14 | Cc1ccc(Nc2ncc(C)c(Nc3ccc(CNS(=O)(=O)C4CC4)cc3)n2)cc1S(=O)(=O)NC(C)C [Compound I-189, N4-(4-cyclopropylsulfonylaminomethyl)phenyl-N2-(3-isopropylaminosulfonyl-4-methyl)phenyl-5-methyl-2,4-pyrimidinediamine] | 34.4 | 35.2 | 153
15 | CNS(=O)(=O)c1ccc(Nc2ncc(C)c(Nc3cccc(CNS(=O)(=O)C4CC4)c3)n2)cc1 [Compound I-207, N4-(3-cyclopropylsulfonylaminomethyl)phenyl-5-methyl-N2-(4-methylaminosulfonyl)phenyl-2,4-pyrimidinediamine] | 158 | 86.5 | 312
16 | NS(=O)(=O)c1cccc(Nc2ncc(F)c(Nc3ccc(CNS(=O)(=O)C4CCCC4)cc3)n2)c1 [Compound I-69, N2-(3-aminosulfonyl)phenyl-N4-(4-cyclopentylsulfonylaminomethyl)phenyl-5-fluoro-2,4-pyrimidinediamine] | 50 | 51.5 | 176
17 | Cc1cnc(Nc2cccc(S(N)(=O)=O)c2)nc1Nc1cccc(CNS(=O)(=O)C2CC2)c1 [Compound I-51, N2-(3-aminosulfonyl)phenyl-N4-(3-cyclopropylsulfonylaminomethyl)phenyl-5-methyl-2,4-pyrimidinediamine] | 29.7 | 62.2 | 324
18 | Cc1cnc(Nc2cccc(S(=O)(=O)NCc3ccccc3)c2)nc1Nc1ccc(CNS(=O)(=O)C2CC2)cc1 [Compound I-154, N2-(3-benzylaminosulfonyl)phenyl-N4-(4-cyclopropylsulfonylaminomethyl)phenyl-5-methyl-2,4-pyrimidinediamine] | 61.9 | 84.6 | 184
19 | C#CCNS(=O)(=O)c1cc(Nc2ncc(C)c(Nc3ccc(CNS(=O)(=O)C4CC4)cc3)n2)ccc1C [Compound I-188, N4-(4-cyclopropylsulfonylaminomethyl)phenyl-5-methyl-N2-(4-methyl-3-propargylaminosulfonyl)phenyl-2,4-pyrimidinediamine] | 573 | 43.6 | 193
20 | Cc1cnc(Nc2cccc(S(N)(=O)=O)c2)nc1Nc1ccc2c(c1)CN(S(=O)(=O)C1CC1)C2 [II-8, N2-(3-Aminosulfonyl-phenyl)-N4-[(2-cyclopropylsulfonyl)-isoindolin-5-yl]-5-methyl-2,4-pyrimidinediamine] | 147 | 97.9 | 775
21 | Cc1cnc(Nc2cccc(S(N)(=O)=O)c2)nc1Nc1ccc(CNS(=O)(=O)C2CC2)c(Cl)c1 [Compound I-119, N2-(3-aminosulfonyl)phenyl-N4-(3-chloro-4-cyclopropylsulfonylaminomethyl)phenyl-5-methyl-2,4-pyrimidinediamine] | 95.4 | 53.5 | 535
22 | CCS(=O)(=O)NCc1cccc(Nc2nc(Nc3ccc(C)c(S(N)(=O)=O)c3)ncc2F)c1 [Compound I-13, N2-(3-aminosulfonyl-4-methyl)phenyl-N4-(3-ethylsulfonylaminomethyl)phenyl-5-fluoro-2,4-pyrimidinediamine] | 197 | 136 | 536
23 | CNS(=O)(=O)c1cc(Nc2ncc(C)c(Nc3ccc(CNS(=O)(=O)C4CC4)cc3)n2)ccc1C [Compound I-185, N4-(4-cyclopropylsulfonylaminomethyl)phenyl-5-methyl-N2-(4-methyl-3-methylaminosulfonyl)phenyl-2,4-pyrimidinediamine] | 41.1 | 22.5 | 85.3
